Here are results for four compounds from patent US5239110A, “Phenylcyclohexanol derivatives as agents for treating CNS disorders” (Sterling Winthrop, Inc., priority 1992, dated 1993).

pKi: −log10 of the molar value.

The test addresses sigma receptors. In words: sigma receptor binding, [3H]di(2-tolyl)guanidine (DTG) assay. Also noted: species or system guinea pig (male Hartley), brain tissue. Conditions: [3H]DTG approx. 4 nM, 25° C., 90 min, guinea pig brain membranes; for pKi: pH 7.4. As for the experimental part: Brain tissue was prepared from male Hartley guinea pigs (Hazelton Labs, Denver, PA) which were anesthetized with CO2 and sacrificed by decapitation. All animal care and use procedures were in accord with the "Guide for the Care and Use of Laboratory Animals" (NIH Publ. No. 86-23, 20 1985). Homogenization was performed in 10 volumes (wt/vol) of 0.32 M sucrose with a Brinkmann Polytron at setting 5, 30 sec. The homogenate was centrifuged at 900×g for 10 min at 4° C., and the supernatant was collected and centrifuged at 22,000×g for 20 min at 4° C. The pellet was resuspended in 10 volumes of Tris-HCl buffer (50 mM, pH 7.4), incubated at 37° C. for 30 min and centrifuged at 22,000×g for 20 min at 4° C. Following this, the pellet was resuspended in Tris buffer and frozen in 5-10 mL aliquots corresponding to a tissue concentration of 100 mg/mL at -70° C. Binding characteristics of the membranes were stable for at least one month when stored at -70° C.
On the day of the assay, membrane aliquots were thawed, resuspended in fresh Tris buffer and stored on ice until use. Each assay tube contained 100 μL of [3H](+)pentazocine at a final concentration of approximately 0.5 nM, [3H]di(2-tolyl)guanidine (DTG) at a final concentration of approximately 4 nM, 100 μL of various concentrations of the compounds of interest, 500 μL of the tissue suspension and 300 μL of buffer to a final assay volume of 1 mL and a final tissue concentration of approximately 8 mg/tube, corresponding to approximately 0.15 mg protein/tube. Nonspecific binding was defined by addition of a final concentration of 1 μM haloperidol to blank tubes for [^3 H]+pentazocine assay or by addition of a final concentration of 10 μM haloperidol to blank tubes for [^3 H]DTG assay. All tubes were incubated at 37° C. for 150 minutes ([^3 H]+pentazocine) or at 25° C. for 90 min ([3H]DTG) before termination of the reaction by filtration over Whatman GF/B glass fiber filters that were presoaked in a solution of 0.5% polyethyleneimine for at least 1 hr prior to use. Filters were washed with three 4 mL volumes of cold Tris-HCl buffer.
Following addition of scintillation cocktail, samples were allowed to equilibrate for at least 4 hr. The amount of bound radioactivity was determined by liquid scintillation spectrometry using a Beckman LS 5000 TA liquid scintillation counter with an efficiency for tritium of approximately 60%.
Data obtained on the compounds in the di(2-tolyl)guanidine (DTG) and d-pentazocine (+pent) assays, expressed as a Ki value in nM or % inhibition at 10 nM, are as follows: […]

Regarding `CCC(=O)O[C@]1(c2ccccc2)CC[C@@H](N(C)C)CC1` [Example 4, trans-4(dimethylamino)-1-phenylcyclohexyl propionate], the negative-log Ki (pKi) is 5.39.

For the compound `CN(C)C1CCC(O)(c2ccccc2)CC1` (stereo not shown) [Example 1, 4-(Dimethylamino)-1-phenylcyclohexanol], for the setting “at 10 nM”, the “DTG % inhib (10 nM)” value is 61%.

The compound `CCC(=O)O[C@]1(c2ccccc2)CC[C@H](N(C)C)CC1` [Example 3, cis-4-(dimethylamino)-1-phenylcyclohexyl propionate] had a pKi of 6.54.

`CC(=O)O[C@]1(c2ccccc2)CC[C@H](N(C)C)CC1` [Example 2, cis-4-(dimethylamino)-1-phenylcyclohexylacetate] had a pKi of 5.30.

A word on the pKi: it is −log10 of the Ki, conventionally taken in molar units.
